Each structure is given as a SMILES string.

For assay [1], the target named is T1, Human immunodeficiency virus type 1 protease (Human immunodeficiency virus 1, UniProt Q72874). Briefly: Inhibitory activity was evaluated against human immunodeficiency virus type 1(HIV-1) protease at pH 6.2.
In assay [2] the target is T1, Human immunodeficiency virus type 1 protease. Nature of the assay: ChEBML_79977. The conditions noted are these: pH 4.7. The method, then: Inhibitory activity was evaluated against human immunodeficiency virus type 1(HIV-1) protease at pH 4.7

In turn, `CC(C)(C)c1oc2ccccc2c1SC1C(=O)CC(CCc2ccccc2)(c2ccccc2)OC1=O` (centres undefined) [3-(2-tert-Butyl-benzofuran-3-ylsulfanyl)-4-hydroxy-6-phenethyl-6-phenyl-5,6-dihydro-pyran-2-one] gave an IC50 in assay [1] of 211 nM.
In assay [2], `CCc1c(SC2C(=O)CC(CCc3ccccc3)(c3ccccc3)OC2=O)sc2ccccc12` (centres undefined) [3-(3-Ethyl-benzo[b]thiophen-2-ylsulfanyl)-4-hydroxy-6-phenethyl-6-phenyl-5,6-dihydro-pyran-2-one] showed a concentration for half-maximal inhibition (IC50) of 28 nM.
On to `CC(C)(C)c1cc2c(cc1SC1C(=O)CC(CCc3ccccc3)(c3ccccc3)OC1=O)CCCC2` (centres undefined) [3-(3-tert-Butyl-5,6,7,8-tetrahydro-naphthalen-2-ylsulfanyl)-4-hydroxy-6-phenethyl-6-phenyl-5,6-dihydro-pyran-2-one], for which, in assay [2], the IC50 is 28 nM.
`CC(C)(C)c1cc2c(cc1SC1C(=O)CC(CCc3ccccc3)(c3ccccc3)OC1=O)CCC2` (centres undefined) [3-(6-tert-Butyl-indan-5-ylsulfanyl)-4-hydroxy-6-phenethyl-6-phenyl-5,6-dihydro-pyran-2-one] had an IC50 in assay [1] of 130 nM.

A word on the IC50: it is the concentration that gives 50% inhibition.

(Values after BindingDB's records for doi:10.1016/s0960-894x(99)00332-7 (Warner-Lambert, 1999).)
